In general, IC50 refers to the point on the concentration scale where inhibition reaches its midpoint. Read a high IC50 as weaker potency.

Where only a bound is given, the exact number is not on record here.

For assay [1], the target named is T1, JAK2 (Homo sapiens, UniProt O60674).
T1 construct: 5 μl of catalytic domain recombinant Kinase enzyme+Tyr peptide substrate (Invitrogen, CA); purchased Invitrogen
The experiment in a line: Z'-LYTE kinase assay JAK2. Type of assay: biochemical. In a few lines: (§1)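 Read-out is FRET fluorescence between coumarin and fluorescein on a Tyr6 peptide, lost when the development protease cleaves unphosphorylated substrate. Kinase reaction used recombinant catalytic domain with ATP, 1 h at room temperature, 1% DMSO.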

Assay [2] deals with JAK1/3 signaling to STAT6 in Ramos B cells. The experiment in a line: IL4 stimulation of JAK1/3 signaling to STAT6 in Ramos B cells (pSTAT6 Y641, FACS). The assay is classed as cell-based. As to conditions: Homo sapiens; for inhibition at 0.2 µM: 0.2 uM compound, read-out: IL-4/STAT6 in Ramos Percent Inhibition at 0.2 uM; for inhibition at 1 µM: 1.0 uM compound, read-out: IL-4/STAT6 in Ramos Percent Inhibition at 1.0 uM. The method, then: IL4 stimulation of JAK1/3 signaling to STATE in Ramos B cells:
As an alternative strategy to measure effect of JAK3 inhibitors on JAK1/3 dependent cytokine signaling pathways, IL4 stimulation of the Ramos Burkett's B cell line is used. IL4 engages a receptor consisting of the IL4 receptor alpha chain and the common gamma chain. […] Ramos B cells are suspended in tissue culture media containing 10% fetal calf serum at 10×10̂6 cells/ml. 100 μl aliquots are pre-treated for 1 hour with various concentrations of compound, and then stimulated for 15 minutes with 15 ng IL4. The signaling reaction is terminated by fixing in 2% paraformaldehyde for 10 minutes at room temperature. Fixed cells are then washed and permeablized by suspension in 100% methanol at −80° C. Following overnight incubation at 4° C., cells are washed and resuspended in PBS containing 0.5% bovine serum albumin containing pSTAT6 Y641-PE conjugated antibody. After 1 hour incubation, cells are washed and the extent of STAT6 phosphorlyation in Ramos cells is measured by FACS analysis.

In assay [3] the target is T2, JAK3 (Homo sapiens, UniProt P52333).
T2 construct: 5 μl of catalytic domain recombinant Kinase enzyme+Tyr peptide substrate (Invitrogen, CA); purchased Invitrogen
The experiment in a line: Z'-LYTE kinase assay JAK3. The assay is classed as biochemical. In a few lines: as §1

Assay [4] concerns the target T3, TYK2 (Homo sapiens, UniProt P29597).
T3 construct: 5 μl of catalytic domain recombinant Kinase enzyme+Tyr peptide substrate (Invitrogen, CA); purchased Invitrogen
T3 sequence (P29597 897-1176 limits assumed): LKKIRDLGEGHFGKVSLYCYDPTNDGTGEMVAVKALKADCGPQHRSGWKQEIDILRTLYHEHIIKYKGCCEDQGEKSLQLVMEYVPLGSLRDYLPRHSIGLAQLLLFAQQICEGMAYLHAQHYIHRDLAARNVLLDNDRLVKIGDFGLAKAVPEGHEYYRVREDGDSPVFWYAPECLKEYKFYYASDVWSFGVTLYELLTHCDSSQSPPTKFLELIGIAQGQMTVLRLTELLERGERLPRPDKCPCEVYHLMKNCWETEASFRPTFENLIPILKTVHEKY
The assay can be described thus: Z'-LYTE kinase assay TYK2. Type of assay: biochemical. The method, boiled down: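 Recombinant catalytic-domain TYK2 with Tyr6 peptide in Z′-LYTE FRET format, 1% DMSO final, kinase reaction 1 h at room temperature, then protease development 1 h. Fluorescence read at 445/520 nm (excitation 400 nm), percent phosphorylation vs no-inhibitor control, IC50 from 4-parameter logistic fit.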

The target of assay [5] is T4, JAK1 (Homo sapiens, UniProt P23458).
T4 construct: 5 μl of catalytic domain recombinant Kinase enzyme+Tyr peptide substrate (Invitrogen, CA); purchased Invitrogen
The experiment in a line: Z'-LYTE kinase assay JAK1. The assay is classed as biochemical. The method, boiled down: as §1

T2 sequence (P52333 822-1111 limits assumed): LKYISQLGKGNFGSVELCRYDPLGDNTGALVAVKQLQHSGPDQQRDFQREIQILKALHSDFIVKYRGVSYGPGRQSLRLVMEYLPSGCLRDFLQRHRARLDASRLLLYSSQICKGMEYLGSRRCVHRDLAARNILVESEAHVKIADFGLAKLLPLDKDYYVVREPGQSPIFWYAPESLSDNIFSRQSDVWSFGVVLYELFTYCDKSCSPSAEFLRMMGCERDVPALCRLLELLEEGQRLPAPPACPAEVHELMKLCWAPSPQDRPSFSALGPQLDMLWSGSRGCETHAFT
T4 sequence (P23458 875-1153 limits assumed): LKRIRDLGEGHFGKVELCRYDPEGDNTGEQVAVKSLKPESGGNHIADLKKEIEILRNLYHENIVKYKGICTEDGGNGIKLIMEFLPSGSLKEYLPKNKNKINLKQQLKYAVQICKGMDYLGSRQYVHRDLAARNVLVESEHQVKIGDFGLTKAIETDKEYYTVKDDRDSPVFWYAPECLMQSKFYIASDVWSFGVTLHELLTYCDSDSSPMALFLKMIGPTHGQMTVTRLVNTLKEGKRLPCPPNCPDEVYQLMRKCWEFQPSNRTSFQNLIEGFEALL
T1 sequence (O60674 849-1124 limits assumed): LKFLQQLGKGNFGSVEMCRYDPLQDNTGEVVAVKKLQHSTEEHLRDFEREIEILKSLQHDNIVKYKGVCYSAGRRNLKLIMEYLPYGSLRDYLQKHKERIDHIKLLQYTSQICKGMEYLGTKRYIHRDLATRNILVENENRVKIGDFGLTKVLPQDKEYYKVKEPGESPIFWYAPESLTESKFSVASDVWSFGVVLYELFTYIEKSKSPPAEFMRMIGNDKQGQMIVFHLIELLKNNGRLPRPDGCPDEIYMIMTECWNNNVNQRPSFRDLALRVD

Regarding `CC(=O)N1CCN(c2ccc(Nc3cc(NCc4ccccc4)c(C(N)=O)cn3)cc2C)CC1` [Example 5, 6-(4-(4-acetylpiperazin-1-yl)-3-methylphenylamino)-4-(benzylamino)nicotinamide], the IC50 in assay [1] lay in the range of 100 to 1000 nM; in assay [3], 1 to 10 nM; in assay [4], 100 to 1000 nM; in assay [5], 100 to 1000 nM. In addition, the inhibition at 0.2 µM in assay [2] turned out to be 37%. In assay [2], the inhibition at 1 µM was found to be 61%.

`CC(=O)N1CCN(c2ccc(Nc3cc(NCc4cccc(Cl)c4)c(C(N)=O)cn3)cc2)CC1` [Example 257, 6-(4-(4-acetylpiperazin-1-yl)phenylamino)-4-(3-chlorobenzylamino)nicotinamide]: the IC50 was in the range of 10 to 100 nM in assay [1], 1 to 10 nM in assay [3], 100 to 1000 nM in assay [4] and 100 to 1000 nM in assay [5]. Moreover, the inhibition at 0.2 µM in assay [2] is 34%. In assay [2], the inhibition at 1 µM amounted to 65%.

Take `NC(=O)c1cnc(Nc2cccc(OCCN3CCCC3)c2)cc1NCc1cccc(F)c1` [Example 58, 4-(3-fluorobenzylamino)-6-(3-(2-(pyrrolidin-1-yl)ethoxy)phenylamino)nicotinamide]: the 50% inhibitory concentration (IC50) is 10 to 100 nM in assay [1], 1 to 10 nM in assay [3], above 1000 nM in assay [4] and 100 to 1000 nM in assay [5]. Besides, the inhibition at 0.2 µM in assay [2] is 33%. Besides, the inhibition at 1 µM in assay [2] was determined as 60%.

Regarding `CCC(=O)N1CCC(c2ccc(Nc3cc(NCc4cccs4)c(C(N)=O)cn3)cc2)CC1` [Example 197, 6-(4-(1-propionylpiperidin-4-yl)phenylamino)-4-(thiophen-2-ylmethylamino)nicotinamide], the IC50 was 100 to 1000 nM in assay [1], 1 to 10 nM in assay [3], 100 to 1000 nM in assay [4] and 100 to 1000 nM in assay [5].

In the case of `CCC(=O)N1CCC(c2ccc(Nc3cc(NCc4cc(F)ccc4F)c(C(N)=O)cn3)cc2)CC1` [Example 149, 4-(2,5-difluorobenzylamino)-6-(4-(1-propionylpiperidin-4-yl)phenylamino)nicotinamide], the half-inhibitory concentration (IC50) in assay [1] was in the range of 10 to 100 nM; in assay [3], 1 to 10 nM; in assay [4], 100 to 1000 nM; in assay [5], 100 to 1000 nM.

Turning to `Cc1cc(Nc2cc(NCc3ccccc3)c(C(N)=O)cn2)ccc1C(=O)N(C)C` [Example 438, 4-(benzylamino)-6-(4-(dimethylcarbamoyl)-3-methylphenylamino)nicotinamide], the IC50 in assay [1] lay within 10 to 100 nM; in assay [3], 1 to 10 nM; in assay [4], 100 to 1000 nM; in assay [5], 100 to 1000 nM.

Regarding `CCC(=O)N1CCC(c2ccc(Nc3cc(NCc4cncc(F)c4)c(C(N)=O)cn3)cc2)CC1` [Example 188, 4-((5-fluoropyridin-3-yl)methylamino)-6-(4-(1-propionylpiperidin-4-yl)phenylamino)nicotinamide], the IC50 in assay [1] fell in the range of 10 to 100 nM; in assay [3], 1 to 10 nM; in assay [4] it was 100 to 1000 nM; in assay [5], 100 to 1000 nM.

Consider `N#CCCc1ccc(Nc2cc(NCc3ccccc3)c(C(N)=O)cn2)cc1` [Example 386], for which the half-inhibitory concentration (IC50) in assay [1] is 100 to 1000 nM; in assay [3] it was 1 to 10 nM; in assay [4] it was 100 to 1000 nM; in assay [5], 100 to 1000 nM.

As to `NC(=O)c1cnc(Nc2ccc(Cl)cc2)cc1NCc1ccccc1` [Example 13, 4-(benzylamino)-6-(4-chlorophenylamino)nicotinamide], the IC50 in assay [1] was above 1000 nM; in assay [3], 100 to 1000 nM; in assay [4], above 1000 nM; in assay [5], above 1000 nM.

Consider `CC(=O)Nc1cccc(Nc2cc(NCc3cccs3)c(C(N)=O)cn2)c1` [Example 222, 6-(3-acetamidophenylamino)-4-(thiophen-2-ylmethylamino)nicotinamide], for which the concentration for half-maximal inhibition (IC50) in assay [1] fell in the range of 100 to 1000 nM; in assay [3], 1 to 10 nM; in assay [4], 10 to 100 nM; in assay [5], 100 to 1000 nM.

`CN(C)C(=O)COc1ccc(Nc2cc(NC3(c4ccccc4)CC3)c(C(N)=O)cn2)cc1` [Example 366, 6-(4-(2-(dimethylamino)-2-oxoethoxy)phenylamino)-4-(1-phenylcyclopropylamino)nicotinamide]: the IC50 in assay [1] is 100 to 1000 nM; in assay [3] it was 10 to 100 nM; in assay [4], above 1000 nM; in assay [5], above 1000 nM.

In the case of `CC(=O)N1CCN(c2ccc(Nc3cc(NCC4CC4)c(C(N)=O)cn3)cc2)CC1` [Example 238, 6-(4-(4-acetylpiperazin-1-yl)phenylamino)-4-(cyclopropylmethylamino)nicotinamide], the IC50 is 100 to 1000 nM in assay [1], 100 to 1000 nM in assay [3], 100 to 1000 nM in assay [4] and above 1000 nM in assay [5].

Take `Cc1cccc(Nc2cc(Nc3ccc(OCCN4CCCC4)cc3)ncc2C(N)=O)c1` [Example 14, 4-(3-toluidino)-6-(4-(2-(pyrrolidin-1-yl)ethoxy)phenylamino)nicotinamide]: the IC50 in assay [1] was 100 to 1000 nM; in assay [3], 100 to 1000 nM; in assay [4] it was 100 to 1000 nM; in assay [5] it was above 1000 nM.

Consider `CS(=O)(=O)N1CCN(c2ccc(Nc3cc(NC4(c5ccccc5)CC4)c(C(N)=O)cn3)cc2)CC1` [Example 364, 6-(4-(4-(methylsufonly)piperazin-1-yl)phenylamino)-4-(1-phenylcyclopropylamino)nicotinamide], for which the IC50 in assay [1] is 100 to 1000 nM; in assay [3] it was 10 to 100 nM; in assay [4], above 1000 nM; in assay [5], above 1000 nM.

With `Cc1cc(Nc2cc(NCc3ccccc3)c(C(N)=O)cn2)ccc1C(=O)N1CCC1` [Example 448, 6-(4-(azetidine-1-carbonyl)-3-methylphenylamino)-4-(benzylamino)nicotinamide], the half-inhibitory concentration (IC50) in assay [1] fell in the range of 10 to 100 nM; in assay [3], 1 to 10 nM; in assay [4], 10 to 100 nM; in assay [5], 100 to 1000 nM.

Regarding `CC(=O)N1CCN(c2ccc(Nc3cc(NC4(c5ccccc5F)CC4)c(C(N)=O)cn3)cc2)CC1` [Example 130, 6-(4-(4-acetylpiperazin-1-yl)phenylamino)-4-(1-(2-fluorophenyl)cyclopropylamino)nicotinamide], the IC50 in assay [1] is 10 to 100 nM; in assay [3] it was 1 to 10 nM; in assay [4], 100 to 1000 nM; in assay [5], 100 to 1000 nM.

On to `CC(C)(C)OC(=O)N1CCC(c2ccc(Nc3cc(NCc4cccc(F)c4)c(C(N)=O)cn3)cc2)CC1` [Example 77, tert-butyl 4-(4-(5-carbamoyl-4-(3-fluorobenzylamino)pyridin-2-ylamino)phenyl)piperidine-1-carboxylate], for which the concentration for half-maximal inhibition (IC50) is above 1000 nM in assay [1], 100 to 1000 nM in assay [3], above 1000 nM in assay [4] and above 1000 nM in assay [5].

For `NC(=O)c1cc(F)c(Nc2cccc(-n3nccn3)c2)nc1N` [Example 24, 6-(3-(2H-1,2,3-triazol-2-yl)phenylamino)-2-amino-5-fluoronicotinamide], the IC50 in assay [1], in assay [3], in assay [4] and in assay [5] was above 1000 nM throughout.

Take `Cc1cc(Nc2cc(NCc3ccccc3)c(C(N)=O)cn2)ccc1C(=O)N1CC=CC1` [Example 451, 4-(benzylamino)-6-(4-(2,5-dihydro-1H-pyrrole-1-carbonyl)-3-methylphenylamino)nicotinamide]: the IC50 in assay [1] lay within 10 to 100 nM; in assay [3], 1 to 10 nM; in assay [4], 100 to 1000 nM; in assay [5], 100 to 1000 nM.

For `NC(=O)c1cc(F)c(Nc2ccc(OCCN3CCCC3)cc2)nc1NC1CCCC1` [Example 25, 2-(cyclopentylamino)-5-fluoro-6-(4-(2-(pyrrolidin-1-yl)ethoxy)phenylamino)nicotinamide], the IC50 in assay [1], in assay [3], in assay [4] and in assay [5] was above 1000 nM in each case.

With `NC(=O)c1cc(F)c(Nc2cccc(-n3nccn3)c2)nc1NCc1ccccc1` [Example 23, 6-(3-(2H-1,2,3-triazol-2-yl)phenylamino)-2-(benzylamino)-5-fluoronicotinamide], the IC50 in assay [1], in assay [3], in assay [4] and in assay [5] was above 1000 nM throughout.

These data come from patent US20150353495A1 (PORTOLA PHARMACEUTICALS, INC., priority 2010, published 2015).
